Assay: gradient 5% acetonitrile 3 min, to 50% in 2 min, to 85% in 15 min, held 3 min, 100 µL/min
Conditions: column: Zorbax Extend-C18 2.1 x 50 mm; eluents: water / acetonitrile, 0.1% formic acid
In short: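 Using water and acetonitrile that each contained 0.1% formic acid, mixtures of ~100 pure standards were separated at 100 μL/min on a Zorbax Extend-C18 column (2.1 × 50 mm, 1.8 μm). The HPLC fed a quadrupole time-of-flight mass spectrometer working in positive and negative ionization mode, with dead and dwell volumes of 40 μL and 900 μL. Data were acquired over 3 months. Retention time was read from computationally picked adduct peaks after manual inspection of each.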

Row | Compound | RP-LC retention time [s]
1 | Cc1nc2cc(-c3noc(C(C)Oc4cccc(Cl)c4)n3)ccc2n(C)c1=O (centres undefined) | 1110
2 | Cc1cccc(-n2c(=O)c3c(cc(C)n3C)n(CC(=O)Nc3ccccc3)c2=O)c1 | 852
3 | CCN1C(=O)COc2ccc(-c3noc(-c4cc(OC)c(OC)c(OC)c4)n3)cc21 | 1060
4 | Cc1ccc(-n2nnc(-c3noc(C)n3)c2C)cc1 | 836
5 | CCCOc1nc2ccccc2nc1N1CCCC(C(=O)Nc2cccc(OC)c2)C1 (centres undefined) | 1260
6 | CCn1cnc(S(=O)(=O)N2CCC(C(=O)NCc3cccs3)CC2)c1 | 658
7 | COc1cccc(C2c3c(oc4cc(C)c(C)cc4c3=O)C(=O)N2CCCN2CCOCC2)c1 (centres undefined) | 695
8 | O=C(NC1CCN(c2cc(-c3ccccc3)[nH]n2)C1)c1ccccc1Cl (centres undefined) | 692
9 | Cc1ccc(-c2cc(C(=O)NCCC3=CCCCC3)c(C)[nH]2)cc1C | 1120
10 | O=C1CC(c2cccs2)Cc2nc(N3CCN(c4ccccn4)CC3)ncc21 (centres undefined) | 674
11 | Cc1noc(C)c1-c1ccc(S(=O)(=O)NCCC(C)C)cc1 | 954
12 | CCC1CCCCN1CCCNC(=O)Cn1c(=O)c2cccn2c2ccc(F)cc21 (centres undefined) | 641
13 | CCc1noc(NC(C)=O)c1-c1ccc(OC)c(S(=O)(=O)Nc2ccc(F)cc2F)c1 | 794
14 | O=C(Nc1ccc(OCC(=O)N2CCN(c3ccccc3Cl)CC2)nc1)C1CC1 | 818
15 | CCc1nc2cc(-c3noc(Cc4ccsc4)n3)ccc2o1 | 1030
16 | CCOC(=O)c1[nH]c(C)c(CN(Cc2ccco2)C(=O)c2ccco2)c1C | 902
17 | CCC(=O)N1c2ccc(S(=O)(=O)CCC(=O)NCCc3ccc(C)cc3)cc2CC1C (centres undefined) | 874
18 | COc1ccc(-c2nc(Nc3ccccn3)sc2C)cc1 | 807
19 | Cc1ccc(NC(=O)N2CCC(C(C)C(=O)Nc3cc(C)cc(C)c3)CC2)cc1 (centres undefined) | 970
20 | O=c1ccnc(Nc2ccc(Cl)cc2)[nH]1 | 701
21 | O=C1c2ccccc2C(=O)c2sc(Nc3ccc(Cl)c(Cl)c3)nc21 | 1140
22 | COCCN1C(=O)c2ccccc2C(C(=O)NCc2ccccc2OC)C12CCCC2 (centres undefined) | 855
23 | COc1cccc(CN(C)C2CCc3nn(CC4CC4)c(=O)n3CC2)n1 (centres undefined) | 587

Row | Compound | RP-LC retention time [s]
24 | CN1C(=O)C(c2c(-c3ccc(Cl)cc3)[nH]c3[nH]c(=O)[nH]c(=O)c23)c2ccccc21 (centres undefined) | 716
25 | COc1cc(OC)c(NC(=O)Cn2nc3n(c2=O)CCCCC3)cc1Cl | 722
26 | CCOC(=O)COc1cc(-c2ccc(C)cc2)nc2ccc(NC(=O)c3cccs3)cc12 | 830
27 | COc1ccc(-c2noc(-c3nc(-c4cccnc4)no3)n2)cc1OC | 893
28 | Cc1ccc(CNC(=O)C2CCCN(c3nc4c(s3)c(C)nn4-c3ccc(Cl)cc3)C2)cc1 (centres undefined) | 1290
29 | COCCNS(=O)(=O)c1cc(-c2nc(CC(C)C)cs2)cs1 | 1010
30 | Cc1cc(N2CCCCC2)nc(NCCNC(=O)Cc2noc3ccccc23)n1 | 580
31 | COC(=O)CSc1ccc(NC(C)=O)nn1 | 577
32 | CNC(=O)C1CCN(c2nc3ncn(CC(=O)Nc4c(C)cc(C)cc4C)c(=O)c3s2)CC1 | 646
33 | O=C(NC1CCCC1)C1CCCN(S(=O)(=O)Cc2ccc(Cl)cc2)C1 (centres undefined) | 910
34 | CCc1cc(=O)n(CC(=O)Nc2c(C)cccc2C)c(N2CCOCC2)n1 | 736
35 | CCOc1ccc(Cl)cc1S(=O)(=O)N1CCC(C(=O)NCc2ccc3c(c2)OCO3)CC1 | 922
36 | CCn1c(=O)c(N2CCCC(C(=O)N3CCN(c4ccc(Cl)cc4)CC3)C2)nc2ccccc21 (centres undefined) | 1230
37 | Cc1cc2nc(C(=O)Nc3ccc(F)c(C)c3)cc(C)n2n1 | 1010
38 | Cc1ccccc1Nc1c(-c2cc(Br)ccc2F)nc2c(C)cccn12 | 843
39 | O=C(NC1CCN(c2nnc3ccc(Cl)cn23)CC1)c1ccsc1 | 602
40 | O=C(c1ccncc1)N1CCC(c2noc(-c3cnccn3)n2)C1 (centres undefined) | 584
41 | CCOC(=O)c1cnc(N2CCN(c3cccc(Cl)c3)CC2)c2ccccc12 | 652
42 | Cc1ccccc1-c1noc(C2CCCN2C(=O)NC2CCCCC2)n1 (centres undefined) | 1020
43 | COc1ccccc1NC(=O)C1CCN(c2cc(N3CCSCC3)ncn2)CC1 | 684
44 | CCn1cnc(S(=O)(=O)N2CCC(C(=O)NCc3ccc(OC)cc3)CC2)c1 | 674
45 | COc1ccc(Cl)cc1NC(=O)Cn1cc2c(n1)CCCC2 | 1020
46 | O=C(CCC1CCN(S(=O)(=O)c2ccccc2)CC1)NCc1ccc(F)cc1 | 882

Row | Compound | RP-LC retention time [s]
47 | Cc1cccc(C2=NC3(CCN(C(=O)c4ccc5c(c4)OCO5)CC3)NC2=O)c1 | 792
48 | O=C(Nc1nnc(-c2ccco2)o1)C1c2ccccc2Oc2ccccc21 | 783
49 | CCc1noc(C2(NC(=O)c3ccc(C(C)(C)C)cc3)CCCCC2)n1 | 1190
50 | CC(C)c1cc(N2CCN(C(=O)c3ccc(N(C)C)cc3)CC2)nc2nncn12 | 606
51 | COCCn1c(CC2CCN(C(=O)Cc3ccsc3)C2)nc2cccnc21 (centres undefined) | 599
52 | CCCn1c2ccccc2c2nnc(SCC(=O)Nc3nc(-c4ccccc4)cs3)nc21 | 1080
53 | CCc1nc2ncc(-c3ccnc(N4CCN(Cc5ccccc5)CC4)n3)c(C)n2n1 | 607
54 | COC(=O)c1cc2c(=O)n(-c3nc(-c4ccc(Cl)cc4)cs3)ccc2nc1C | 1420
55 | CCc1ccc(-c2cc(C(=O)N3CCCN(c4cc(=O)n(C(C)C)c(=O)n4C(C)C)CC3)[nH]n2)cc1 | 946
56 | COc1ccc(OC)c(-c2ccc(SCC(=O)Nc3cc(C)no3)nn2)c1 | 754
57 | Cc1ccc(Nc2c(-c3ccccc3O)nc3ncccn23)cc1C | 951
58 | CS(=O)(=O)N1CCCC(C(=O)Nc2nc(-c3nc4ccccc4s3)cs2)C1 (centres undefined) | 800
59 | CCOc1ccc(NC(=O)NCc2nc(-c3ccc(OCC)cc3)oc2C)cc1 | 656
60 | CCN1CCn2cc(S(=O)(=O)Nc3ccc(OC)c(Cl)c3)cc2C1=O | 730
61 | CC(C)CCNC(=O)Cn1nc2c3cc(-c4ccc(F)cc4)nn3ccn2c1=O | 876
62 | O=C(C1CC1)N1c2ccccc2CC1c1nc(C2CC2)no1 (centres undefined) | 908
63 | CN1C(=O)COc2ccc(-c3csc(NC(=O)C4CC4)n3)cc21 | 778
64 | Cc1ccc2c(=O)c(C(=O)N3CCCC3)cn(CC(=O)Nc3ccc(F)c(F)c3)c2n1 | 720
65 | CCC(C)NC(=O)C(=O)NCc1n[nH]c(=O)c2ccccc12 (centres undefined) | 649
66 | CC(C)c1ccc2c(c1)-c1ccccc1S(=O)(=O)N2CC(=O)NCc1cccnc1 | 711
67 | CCc1nc(-c2csc(S(=O)(=O)N3CCC(C(=O)Nc4cccc(C)n4)CC3)c2)no1 | 838
68 | Cc1cccc(-c2nocc2CCC(=O)NCc2ccccc2)c1 | 907
69 | CCCn1cc(S(=O)(=O)Nc2cc(OC)cc(OC)c2)c2cccnc21 | 860

Row | Compound | RP-LC retention time [s]
70 | COc1ccc(CCC(=O)NC(CC(C)C)C(=O)Nc2nc3ccccc3[nH]2)cc1 (centres undefined) | 745
71 | CCOc1ccc(NC(=O)Nc2c(-c3cccc(C)c3)nc3ccccn23)cc1 | 697
72 | Cc1ccc(C(=O)Nc2nnc(SCc3nnc(-c4ccccc4C)o3)s2)cc1 | 1040
73 | COc1ccccc1N1C=C(C#N)S(=O)(=O)c2ccccc21 | 871
74 | CN(CCc1noc(COc2ccc(F)cc2)n1)C(=O)c1ccc(F)cc1 | 878
75 | Cc1nnsc1C(=O)Nc1ccc2c(c1)OCC(C)(C)C(=O)N2C | 605
76 | Cc1ccc(C(CC(=O)N2CCN(c3ccccn3)CC2)n2cccc2)cc1 (centres undefined) | 995
77 | O=C1CCN(S(=O)(=O)c2cccc3nsnc23)CCCCCCN1 | 724
78 | CCC(C)C(=O)N1CCCN(C2=NS(=O)(=O)C(c3ccccc3)=C2C)CC1 (centres undefined) | 777
79 | CCCN1C(=O)C(C)(C(=O)NCc2ccc(C)cc2)Oc2cccnc21 (centres undefined) | 616
80 | CCCN1C(=O)c2c(C(=O)NCc3ccc(F)cc3)ncn2CC1(C)C(=O)NC1CCCC1 (centres undefined) | 796
81 | Cc1nc(-c2cccc(NC(=O)c3cncc(Br)c3)c2)no1 | 834
82 | Cc1ccc(NC(=O)N2CCN(c3nc4ccccc4nc3C(F)(F)F)CC2)cc1F | 1150
83 | CC(C)n1cnc(S(=O)(=O)N2CCCC(C(=O)N3CCN(c4ccccn4)CC3)C2)c1 (centres undefined) | 581
84 | Cc1ccc(S(=O)(=O)c2ccc(C(=O)N3CCN(c4ccccn4)CC3)cn2)cc1C | 658
85 | CCN1C(=O)S/C(=C\C(=O)O)C1=O | 638
86 | Cc1cc(-c2nnc(NC(=O)c3ccc4c(c3)OCCO4)o2)c(C)o1 | 766
87 | CCOC(=O)C1=C(N)Oc2c(c(=O)[nH]c3ccc(C)cc23)C1c1ccc(OC)cc1 (centres undefined) | 881
88 | CC(C)NC(=O)C1CCN(S(=O)(=O)c2cc(-c3noc(C4CCC4)n3)cs2)CC1 | 913
89 | O=C1NCCCn2cc(S(=O)(=O)N3CCN(c4ccccc4)CC3)cc21 | 724
